The record followed here is US6673791B2, “Non-nucleoside reverse transcriptase inhibitors” (Boehringer Ingelheim (Canada) Ltd., priority 2001, dated 2004).

For orientation: EC50 means the midpoint of the concentration-response curve.

Test [1] addresses T1, K103N/Y181C double mutant RT (HIV-1 RT) (Human immunodeficiency virus type 1 group M subtype B, UniProt P03366, K702N/Y780C).
T1 construct: mutations that occur in the reverse transcriptase segment of the pol gene
Kind of test: biochemical. The source says:
(§1) Based upon testing of these compounds, as described below, it is known that they inhibit the RNA-dependent DNA polymerase activity of HIV-1 RT. […] Utilising the Reverse Transcriptase (RT) Assay described below, compounds can be tested for their ability to inhibit the RNA-dependent DNA polymerase activity of HIV-1 RT. Certain specific compounds described in the Examples which appear below, were so tested. The results of this testing appear in Table 4 as IC50 (nM) and Table 5 as EC50 (nM).
(§2) Reverse TranscriptASE (RT) Assays
(§3) The assays are as described in WO 01/96338A1, the contents of which are hereby incorporated herein. The results are listed in Tables 8 as IC50(nM) and EC50(nM).

For test [2], the target named is T2, V106A mutant RT (HIV-1 RT) (Human immunodeficiency virus type 1 group M subtype B, UniProt P03366, V705A).
T2 construct: mutations that occur in the reverse transcriptase segment of the pol gene
Kind of test: biochemical.
Source text: as §1, §2, §3

For test [3], the target named is T3, WT RT (HIV-1 RT) (Human immunodeficiency virus type 1 group M subtype B, UniProt P03366).
T3 construct: mutations that occur in the reverse transcriptase segment of the pol gene
Kind of test: biochemical.
Source text: as §1, §2, §3

For test [4], the target named is T4, Y188L mutant RT (HIV-1 RT) (Human immunodeficiency virus type 1 group M subtype B, UniProt P03366, Y787L).
T4 construct: mutations that occur in the reverse transcriptase segment of the pol gene
Kind of test: biochemical.
Source text: as §1, §2, §3

Test [5] relates to WT RT (HIV-1 wild type strain). As to the kind of experiment: EC50 assay, WT RT strain. Type of test: cell-based. Particulars: Human immunodeficiency virus 1, read-out: EC50 WT RT (nM).
Source text: as §2, §3

Setting [6] is: K103N/Y181C double mutant RT, read-out: IC50 K103N/Y181C.
[7] abbreviates: wild type RT, read-out: IC50 WT RT.
The mark [8] stands for this setting: read-out: IC50 K103N/Y181C, K103N/Y181C double mutant RT.
The mark [9] stands for this setting: read-out: IC50 WT RT, wild type RT.

Molecules are shown by their SMILES. Like-named read-outs stand apart in the source and are kept apart here.

For the compound `CCN1c2ncc(CCOc3ccc(CC(C)C(=O)O)c4ccccc34)cc2C(=O)Nc2c(C)cc(Cl)nc21` (stereo not shown) [Entry 1047], the IC50 in test [1] was 100 to 1000 nM; in test [2] (IC50 V106A (nM)) it was 100 to 1000 nM; in test [3], less than 100 nM; in test [4] (IC50 Y188L (nM)) it was more than 1000 nM.

As to `CCN1c2ncc(CCOc3cccc4c(S(N)(=O)=O)cccc34)cc2C(=O)N(C)c2cccnc21` [Entry 2004], the IC50 in test [1] was less than 100 nM; in test [2] (IC50 V106A (nM)), 100 to 1000 nM; in test [3], less than 100 nM; in test [4] (IC50 Y188L (nM)) it was 100 to 1000 nM.

As for `CCN1c2ncc(CCOc3ccc(S(=O)(=O)NC(C)=O)c4ccccc34)cc2C(=O)N(C)c2cccnc21` [Entry 2005], the IC50 was 100 to 1000 nM in test [1] (setting [6]), more than 1000 nM in test [2] (read-out: IC50 V106A), less than 100 nM in test [3] (setting [7]) and more than 1000 nM in test [4] (read-out: IC50 Y188L).

On to `CCN1c2ncc(CCOc3ccc(NC(=O)CC(C)(C)C(=O)O)c4ccccc34)cc2C(=O)N(C)c2cccnc21` [Entry 2007], for which the IC50 in test [1] (setting [6]) is 100 to 1000 nM; in test [2] (read-out: IC50 V106A), more than 1000 nM; in test [3] (setting [7]), less than 100 nM; in test [4] (read-out: IC50 Y188L) it was more than 1000 nM.

In the case of `CCN1c2ncc(CCOc3ccc(C(=O)O)c4ccccc34)cc2C(=O)N(C)c2cccnc21` [Entry 2010], the IC50 in test [1] is 100 to 1000 nM; in test [2] (IC50 V106A (nM)) it was more than 1000 nM; in test [3], less than 100 nM; in test [4] (IC50 Y188L (nM)), more than 1000 nM.

`CCN1c2ncc(CCOc3ccc(CC(=O)NS(C)(=O)=O)c4ccccc34)cc2C(=O)N(C)c2cccnc21` [Entry 2012]: the IC50 in test [1] (setting [6]) is more than 1000 nM; in test [2] (read-out: IC50 V106A), more than 1000 nM; in test [3] (setting [7]), less than 100 nM; in test [4] (read-out: IC50 Y188L) it was more than 1000 nM.

Take `CCN1c2ncc(CCOc3ccc(/C=C/C(=O)O)c4ccccc34)cc2C(=O)N(C)c2cccnc21` [Entry 2013]: the IC50 in test [1] (setting [8]) was 100 to 1000 nM; in test [2] (read-out: IC50 V106A) it was more than 1000 nM; in test [4] (IC50 Y188L (nM)), more than 1000 nM.

As to `CCN1c2ncc(CCOc3ccc(/C=C/C(=O)O)c4ccccc34)cc2C(=O)Nc2c(C)cc(F)nc21` [Entry 2015], the IC50 in test [1] (setting [8]) was 100 to 1000 nM; in test [2] (IC50 V106A (nM)), 100 to 1000 nM; in test [3] (setting [9]) it was less than 100 nM; in test [4] (read-out: IC50 Y188L) it was more than 1000 nM.

In the case of `CCN1c2ncc(CCOc3ccc(/C=C/C(=O)O)c4ccccc34)cc2C(=O)N(C)c2ccc(C)nc21` [Entry 2017], the IC50 is 100 to 1000 nM in test [1] (setting [8]), more than 1000 nM in test [2] (IC50 V106A (nM)), less than 100 nM in test [3] (setting [9]) and more than 1000 nM in test [4] (IC50 Y188L (nM)).

Regarding `CCN1c2ncc(CCOc3ccc(CC(C)C(=O)O)c4ccccc34)cc2C(=O)N(C)c2cccnc21` (stereo not shown) [Entry 2021], the IC50 in test [3] (setting [7]) was in the range of 100 to 1000 nM.

In the case of `CCN1c2ncc(CCOc3ccc4cc(C(=O)O)ccc4c3)cc2C(=O)N(C)c2cccnc21` [Entry 3001], the IC50 was 100 to 1000 nM in test [1], 100 to 1000 nM in test [2] (IC50 V106A (nM)), less than 100 nM in test [3] and more than 1000 nM in test [4] (IC50 Y188L (nM)).

As to `CCN1c2ncc(CCOc3ccc4cc(CC(=O)O)ccc4c3)cc2C(=O)N(C)c2cccnc21` [Entry 3004], the IC50 in test [1] is more than 1000 nM; in test [2] (IC50 V106A (nM)), 100 to 1000 nM; in test [3] it was less than 100 nM; in test [4] (IC50 Y188L (nM)), more than 1000 nM.

As to `CCN1c2ncc(CCOc3ccc(CC(=O)O)c4c3CCCC4)cc2C(=O)N(C)c2cccnc21` [Entry 5006], the IC50 in test [1] is 100 to 1000 nM; in test [2] (IC50 V106A (nM)), more than 1000 nM; in test [3], less than 100 nM; in test [4] (IC50 Y188L (nM)), more than 1000 nM.

Turning to `CCN1c2ncc(CCOc3cccc4c3CCCN4CC(=O)O)cc2C(=O)N(C)c2cccnc21` [Entry 6001], the IC50 in test [1] was more than 1000 nM; in test [2] (IC50 V106A (nM)) it was more than 1000 nM; in test [3], less than 100 nM; in test [4] (IC50 Y188L (nM)) it was more than 1000 nM. Further, the concentration for a half-maximal effect (EC50) in test [5] lay within 100 to 1000 nM.

In test [3], `CCN1c2ncc(CCOc3cccc4c3CCCN4C(=O)CC(=O)O)cc2C(=O)N(C)c2cccnc21` [Entry 6002] registered an IC50 of less than 100 nM.

For `CCN1c2ncc(CCOc3ccc(C(=O)O)c4c3CCN(C(C)=O)C4)cc2C(=O)N(C)c2cccnc21` [Entry 7004], the IC50 in test [1] is 100 to 1000 nM; in test [2] (IC50 V106A (nM)), more than 1000 nM; in test [3] it was less than 100 nM; in test [4] (IC50 Y188L (nM)), more than 1000 nM. Also, in test [5], the EC50 lay within 100 to 1000 nM.

On to `CCN1c2ncc(CCOc3ccc(C(=O)O)c4c3CCN(S(C)(=O)=O)C4)cc2C(=O)N(C)c2cccnc21` [Entry 7005], for which the IC50 in test [1] is less than 100 nM; in test [2] (IC50 V106A (nM)), more than 1000 nM; in test [3] it was less than 100 nM; in test [4] (IC50 Y188L (nM)) it was 100 to 1000 nM. In addition, the EC50 in test [5] was less than 100 nM.
